Results: US11199553B2, “25-OH vitamin D derivatives for determining vitamin D metabolites” (ORGENTEC D[…], priority 2013, dated 2021)

System: 25OHD antibody
Conditions: even at a 25OHD3 concentration of 5 ng/ml; 7.5 ng/ml tracer; vitamin D-free serum matrix; OD 450 nm
Description: For the ELISA detection of the specific 25OHD competition, 80 μl of vitamin D release reagent were added to serial dilutions of 25OHD3 in vitamin D-free serum matrix (SerCon, Seracare Inc.) in concentrations of 0, 5, 10, 20, 20, 50, 100, 200, 300 ng/ml in the presence of 7.5 ng/ml of biotin-25OHD tracer reagent and applied to microtitre plate wells coated with an anti-25OHD antibody. The binding of the tracer on the basis of the competing 25OHD concentration was determined with peroxidase-labelled streptavidin and a tetramethylbenzidine (TMB) colour reaction by measuring the OD 450 nm.
An antibody against 25-OH-vitamin D3 or 25-OH-vitamin D2 was diluted in Tris-buffered saline pH 8.0 to a concentration of 1 μg/ml. The wells of a microtitre plate (Maxisorb, Nunc) were coated with 100 μl of the diluted antibody, dried at 37° C. and stored at 4° C. until the test was carried out.
Defined concentrations of 25-OHD3 were added to vitamin D-free serum matrix (Seracon, Seracare Inc.). […] The antibody-bound biotin-25OHD tracer was detected with peroxidase-labelled streptavidin and a tetramethylbenzidine (TMB) colour reaction. After the substrate reaction had been stopped by addition of 100 μl of 50 mM phosphoric acid, the optical density was measured at 450 nm.

In the case of “3α-[α-biotinamido-ω-dodeca(ethylene glycol)-amido]-25-hydroxy-deoxyvitamin D3 [VD1]”, the “competition of the tracer by 25OHD3 for binding sites on the 25OHD antibody” value is reported as “specific competition”.
